Test system: Caco-2 cells
Settings: human, Caco-2, 2 h, 3 μM, pH 7.4

SMILES | CACO2 (A-B) [nm/s]
[2H]C([2H])([2H])NC(=O)c1nnc(NC(=O)C2CC2)cc1Nc1cccc(-c2cc(C)ncn2)c1OC [Example 8, 6-cyclopropaneamido-4-{[2-methoxy-3-(6-methylpyrimidin-4-yl)phenyl]amino}-N-(^2H3)methylpyridazine-3-carboxamide] | 460
[2H]C([2H])([2H])NC(=O)c1nnc(NC(=O)C2CC2)cc1Nc1cccc(-c2cnc(C3CC3)cn2)c1OC [Example 11, 6-cyclopropaneamido-4-{[3-(5-cyclopropylpyrazin-2-yl)-2-methoxyphenyl]amino}-N-(^2H3)methylpyridazine-3-carboxamide] | 270
[2H]C([2H])([2H])NC(=O)c1nnc(NC(=O)C2CC2)cc1Nc1cccc(-c2cnc([N+](=O)[O-])cn2)c1OC [Example 12, 6-cyclopropaneamido-4-{[2-methoxy-3-(5-nitropyrazin-2-yl)phenyl]amino}-N-(^2H3)methylpyridazine-3-carboxamide] | 16

Second part, the compound after the results:

CACO2 (A-B) [nm/s] | SMILES
553 | [2H]C([2H])([2H])NC(=O)c1nnc(NC(=O)C2CC2)cc1Nc1cccc(-c2noc(COCC)n2)c1OC [Example 3, 6-cyclopropaneamido-4-({3-[5-(ethoxymethyl)-1,2,4-oxadiazol-3-yl]-2-methoxyphenyl}amino)-N-(^2H3)methylpyridazine-3-carboxamide]
591 | [2H]C([2H])([2H])NC(=O)c1nnc(NC(=O)C2CC2)cc1Nc1cccc(-c2noc(CCOC)n2)c1OC [Example 4, 6-cyclopropaneamido-4-({2-methoxy-3-[5-(2-methoxyethyl)-1,2,4-oxadiazol-3-yl]phenyl}amino)-N-(^2H3)methylpyridazine-3-carboxamide]
499 | [2H]C([2H])([2H])NC(=O)c1nnc(NC(=O)C2CC2)cc1Nc1cccc(-c2ncns2)c1OC [Example 9, 6-cyclopropaneamido-4-{[2-methoxy-3-(1,2,4-thiadiazol-5-yl)phenyl]amino}-N-(^2H3)methylpyridazine-3-carboxamide]
513 | [2H]C([2H])([2H])NC(=O)c1nnc(NC(=O)C2CC2)cc1Nc1cccc(-c2cnc(F)cn2)c1OC [Example 10, 6-cyclopropaneamido-4-{[3-(5-fluoropyrazin-2-yl)-2-methoxyphenyl]amino}-N-(^2H3)methylpyridazine-3-carboxamide]
211 | [2H]C([2H])([2H])NC(=O)c1nnc(NC(=O)C2CC2)cc1Nc1cccc(-c2nc(C)ns2)c1OC [Example 13, 6-cyclopropaneamido-4-{[2-methoxy-3-(3-methyl-1,2,4-thiadiazol-5-yl)phenyl]amino}-N-(^2H3)methylpyridazine-3-carboxamide]

— patent US20240317718A1, “SUBSTITUTED HETEROCYCLIC COMPOUNDS” (BRISTOL-MYERS SQUIBB COMPANY, priority 2021, published 2024)
